# Entries after “also recorded” stand apart in the source; their conditions may differ.
# Assays:
# [1] = system: human mesenchymal stem cells; assay: Calcium deposition in human MSC; assay type: cell-based; conditions: human MSCs, compared to OS media alone; PF—Y especially the two lower doses (FIG. 5)
# Experimental: (§1) Calcium Assay. Calcium deposited by the cells was measured using a diagnostic kit (Sigma #587A). Briefly, cells were rinsed twice with DPBS and hydrolyzed in 0.5 N HCl rotating overnight at 4°. Cells were then scraped and cellular debris was pelleted. Supernatants were used to measure calcium levels following manufacturer's protocol. The absorbance at 570 nm was determined and compared to calcium standards. Calcium levels were corrected for the DNA content in each well.
# (§2) Human mesenchymal stem cells were cultured in DMEM-high glucose containing 10% FBS and 10 mM l-glutamine and plated in six well dishes at a density of 3×10^4 cells/well. The day after plating, these cultures were treated and analyzed as in Example 2.
# murine MC3T3 cells = assay: Alkaline phosphatase activity in MC3T3 cells; assay type: cell-based, mouse; conditions: OS media with increasing doses of PF—Y, units per plate or per μg DNA (FIG. 6)
# Experimental: (§3) Quantitative Alkaline Phosphatase Measurement. For quantitative alkaline phosphatase measurements, cells were washed twice with Dulbecco's phosphate buffered saline (DPBS) followed by incubation with substrate buffer (50 mM glycine, 1 mM magnesium chloride, pH 10.5) containing 1.3 mg/ml p-nitrophenol phosphate. The levels of alkaline phosphatase activity were determined by measuring the absorbance at 405 nm and compared to p-nitrophenol standards. The level of alkaline phosphatase activity was corrected for the amount of DNA in each sample.
# MC3T3 cells were cultured in alpha-MEM media containing 10% FBS and plated in six well dishes at a density of 5×10^4 cells/well. The day after plating, the media were removed and OS media with increasing doses of PF—Y were added. Media were refreshed every 3 days. The amount of alkaline phosphatase was measured as in Example 2 and 3.
# PYK2 = molecular target: T1, PYK2 (Mus musculus, UniProt Q9QVP9); assay: AIF-stimulated phosphorylation of PYK2 tyrosine 402 in MC3T3 cells (immunoprecipitation, SDS-PAGE); assay type: cell-based; conditions: Aluminum fluorate (AIF), 3 mM PF—Y (FIG. 7)
# T1 construct: endogenous in cells; host or cells: murine MC3T3 cells
# Experimental: Murine MC3T3 cells were treated with Aluminum fluorate (AIF) alone or in the presence of 3 mM PF—Y. Cells were lysed and the amount of total PYK2 and phosphorylated PYK2 (P-Y402) were determined by immunoprecipitation with antibodies that recognize total PYK2 or phosphorylated Tyr 402 PYK2 followed by SDS-PAGE.
# [2] = system: murine mesenchymal stem cells; assay: Alkaline phosphatase activity in murine MSC; assay type: cell-based, mouse; conditions: murine MSCs, OS media, 1 μM dexamethasone or increasing doses of PF—Y; units per culture or per μg DNA (FIG. 2)
# Experimental: as §3
# (§4) Murine mesenchymal stem cells isolated from femurs and tibiae of C57BI/6 mice were cultured in alpha-MEM containing 10% fetal bovine serum (FBS) and plated in six well dishes at a density of […]. The day after plating, the media were removed and replaced with media alone, in media with OS, or in OS media containing either 1 μM of dexamethasone or increasing doses of PF—Y for 21 days. “OS” medium” contains 50 μM ascorbic acid and 10 mM β-glycerophosphate. Media were refreshed every 3 days. The amount of alkaline phosphatase was measured on day 7 and day 21. The amounts of secreted calcium were determined only on day 21. The VonKossa stain was done after staining day 21 samples for alkaline phosphatase.
# [3] = system: murine mesenchymal stem cells; assay: Calcium deposition in murine MSC; assay type: cell-based, mouse; conditions: murine MSCs, OS media, day 21, 1 μM dexamethasone or increasing doses of PF—Y; μg per culture or per μg DNA (FIG. 3)
# Experimental: as §1, §4
# [4] = system: human mesenchymal stem cells; assay: Alkaline phosphatase activity in human MSC; assay type: cell-based; conditions: human MSCs, OS media; units per μg DNA (FIG. 4)
# Experimental: as §3, §2
# [5] = system: ovariectomized (OVX) rat model; assay: OVX rat model: serum osteocalcin by RIA; assay type: in vivo; conditions: OVX rats, 2 weeks post-treatment, vs vehicle-treated OVX rats
# [6] = OVX rat model: body weight; assay type: in vivo; conditions: OVX rats, oral gavage 28 days, vs vehicle-treated OVX; PF—X (di-hydrochloride salt) 10 or 30 mg/kg/d, EE 30 μg/kg/d
# [7] = system: ovariectomized (OVX) rat model; assay: OVX rat model: trabecular bone histomorphometry of proximal tibial metaphysis; assay type: in vivo; conditions: OVX rats vs vehicle, PF—X 30 mg/kg/d, 28 days; for bone formation rate/BV / bone formation rate/TV / mineral apposition rate / osteoclast number / osteoclast surface / percent mineralizing surface: EE 30 μg/kg/d
# [8] = system: ovariectomized (OVX) rat model; assay: OVX rat model: pQCT analysis of distal femoral metaphysis; assay type: in vivo; conditions: OVX rats vs vehicle, PF—X 10 or 30 mg/kg/d, 28 days; for cortical bone content / total bone mineral content / total bone mineral density: EE 30 μg/kg/d
# T1 sequence (Q9QVP9 whole entry): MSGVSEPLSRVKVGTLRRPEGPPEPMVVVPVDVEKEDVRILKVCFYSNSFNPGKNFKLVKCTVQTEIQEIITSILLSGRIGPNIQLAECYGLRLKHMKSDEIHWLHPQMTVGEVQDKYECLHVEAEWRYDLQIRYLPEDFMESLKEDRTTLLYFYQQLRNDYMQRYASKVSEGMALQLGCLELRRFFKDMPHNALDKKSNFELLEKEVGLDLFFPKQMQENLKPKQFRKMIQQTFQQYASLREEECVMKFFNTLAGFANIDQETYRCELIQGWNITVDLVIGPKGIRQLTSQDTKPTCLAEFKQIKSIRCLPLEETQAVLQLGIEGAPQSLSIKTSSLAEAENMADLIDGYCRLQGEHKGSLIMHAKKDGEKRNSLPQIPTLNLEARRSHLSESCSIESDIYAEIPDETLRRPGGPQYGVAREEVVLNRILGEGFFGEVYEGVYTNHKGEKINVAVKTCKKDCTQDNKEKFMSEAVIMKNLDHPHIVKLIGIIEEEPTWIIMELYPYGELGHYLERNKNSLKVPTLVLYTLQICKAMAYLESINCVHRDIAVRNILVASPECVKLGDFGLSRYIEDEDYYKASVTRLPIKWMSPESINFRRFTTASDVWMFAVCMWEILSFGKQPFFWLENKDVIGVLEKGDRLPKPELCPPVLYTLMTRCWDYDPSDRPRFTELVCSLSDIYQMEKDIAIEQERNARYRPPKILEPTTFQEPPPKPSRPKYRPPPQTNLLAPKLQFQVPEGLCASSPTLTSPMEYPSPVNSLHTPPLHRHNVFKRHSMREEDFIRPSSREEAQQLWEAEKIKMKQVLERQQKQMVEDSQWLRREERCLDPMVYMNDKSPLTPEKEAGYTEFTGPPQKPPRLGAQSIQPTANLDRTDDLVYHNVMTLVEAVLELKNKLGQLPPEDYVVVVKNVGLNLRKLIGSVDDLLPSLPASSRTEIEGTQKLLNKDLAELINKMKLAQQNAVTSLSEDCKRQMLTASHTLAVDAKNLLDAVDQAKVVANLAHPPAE
SMILES,Serum osteocalcin [5],body weight [6],bone formation rate/BV [7],bone formation rate/TV [7],mineral apposition rate [7],osteoclast number [7],osteoclast surface [7],percent mineralizing surface [7],cortical bone content [8],total bone mineral content [8],total bone mineral density [8],further results
Cc1cc(C)c(/C=C2\C(=O)Nc3ccc(O)cc32)[nH]1 [PF—Y],,,,,,,,,,,,calcium deposition [1]: increased; alkaline phosphatase activity (murine MC3T3 cells): elevated; AIF-induced phosphorylation of tyrosine 402 of PYK2 (PYK2): inhibited; also recorded: inhibition; alkaline phosphatase activity [2]: elevated; calcium deposition [3]: increased; alkaline phosphatase activity [4]: elevated
"C#C[C@]1(O)CC[C@H]2[C@@H]3CCc4cc(O)ccc4[C@H]3CC[C@@]21C [EE, 17[…]-ethynyl estradiol, reference compound]",significantly decreased,prevented OVX-induced weight gain,decreases,decreases,decreases,decreases,decreases,decreases,higher,higher,higher,
CN(c1ccccc1CNc1nc(Nc2ccc3c(c2)CC(=O)N3)ncc1C(F)(F)F)S(C)(=O)=O [PF—X],significantly increased,No significant difference,significant increase,significant increase,significant increase,significant decrease,significant decrease,significant increase,significant increases,significant increases,significant increases,trabecular bone volume [7]: significant increase; trabecular thickness [7]: significant increase; total bone area [8]: significant increases; trabecular bone density [8]: significant increases

# — patent publication US20090118316A1, “Methods for Augmenting Bone” (PFZER INC., priority 2004, published 2009)
